Measured values taken from patent US20020012738A1, “Low calorie fat compositions” (priority 2000, published 2002).

Experiments:
porcine lipase [1] = target: T1, porcine lipase (Sus scrofa, UniProt P00591); test: Hydrolysis by pancreatic lipase, aqueous emulsion assay; format: in vitro ADME; conditions: 30° C., Bis-Tris propane buffer pH 7.8, HMPC, sodium cholate, 300 mg fat, unit assumed
T1 sequence (P00591 1-450): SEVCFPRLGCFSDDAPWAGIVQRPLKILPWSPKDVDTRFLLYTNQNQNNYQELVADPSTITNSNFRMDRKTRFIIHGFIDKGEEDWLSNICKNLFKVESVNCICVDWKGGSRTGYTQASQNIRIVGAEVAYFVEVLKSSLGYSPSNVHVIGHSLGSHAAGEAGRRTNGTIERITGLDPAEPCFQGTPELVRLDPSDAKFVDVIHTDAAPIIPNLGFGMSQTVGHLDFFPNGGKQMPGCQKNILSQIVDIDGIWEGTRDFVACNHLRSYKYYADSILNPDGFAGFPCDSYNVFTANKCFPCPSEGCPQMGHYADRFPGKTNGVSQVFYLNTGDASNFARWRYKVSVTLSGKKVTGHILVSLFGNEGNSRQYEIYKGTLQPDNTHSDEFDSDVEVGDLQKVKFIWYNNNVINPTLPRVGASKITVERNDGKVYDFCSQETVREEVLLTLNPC
Protocol: The digestibility of the wax esters derived from long chain and medium chain combinations (III and IV) of the present invention were done to compare with triolein and wax esters derived from long chain acids and long chain alcohols. The in-vitro assays were done using two emulsion systems as in the following procedure. A mixture of 300 mg of the fat/fat substitute, 4 ml of Bis-Tris propane buffer (10 mM, pH 7.8), 5 ml of hydroxyproylmethylcellulose (HMPC, […]), 0.5 ml of sodium cholate (0.1 M) were sonicated to disperse the fats and incubated at 30° C. Porcine lipase (0.5 ml, 20 mg/ml) was added. The analysis of the reaction was carried out as in the above organic solution assay.

porcine lipase [2] = target: T1, porcine lipase; test: Hydrolysis by pancreatic lipase, organic solution assay; format: in vitro ADME; conditions: 30° C., tamyl alcohol, Bis-Tris propane buffer pH 7.8, 300 mg fat, unit assumed
Protocol: The digestibility of the wax esters derived from long chain and medium chain combinations (III and IV) of the present invention were done to compare with triolein and wax esters derived from long chain acids and long chain alcohols. The in-vitro assays were done using two emulsion systems as in the following procedure. Each digest was carried out with 300 mg of the fat/fat substitute, 9 ml of the ^tamyl alcohol, 0.5 ml of Bis-Tris propane buffer (10 mM, pH 7.8) and 0.5 ml of porcine lipase (20 mg/mi). The reaction was incubated at 30° C. and the reaction stopped by adding 1 ml aliquots to 3 ml of isopropanol/heptane/sulfuric acid (40/10/1). The product was extracted with heptane and analyzed by GC and GC-MS at 360° C.

Hydrolysis by pancreatic lipase, Aqueous Emulsion Assay 24 hr (porcine lipase [1]) [%]	Hydrolysis by pancreatic lipase, Organic Solution Assay 24 hr (porcine lipase [2]) [%]	SMILES
4	2.2	CCCCCCCCCCCCCCCCCCCCOC(=O)CCCCC [Arachidyl caproate]
14.7	7.6	CCCCCCCCCCCCCCCCCCCCOC(=O)CCCCCCC [Arachidyl caprylate]
11.7	5.4	CCCCCCCCCCCCCCCCCCCC(=O)OCCCCCC [Hexyl arachidate]
93.3	69.2	CCCCCCCC/C=C\CCCCCCCC(=O)OCC(COC(=O)CCCCCCC/C=C\CCCCCCCC)OC(=O)CCCCCCC/C=C\CCCCCCCC [Triolein, reference compound]
